Data reported in patent publication US11813244B2, “Agent for eliminating senescent cells” (NIIGATA UNIVERSITY, priority 2016, dated 2023).
“Also recorded” adds a separate entry of the source.

How the values were obtained:
[1] = tested on: human umbilical cord vein derived vascular endothelial cells (HUVECs); test: Apoptosis induction in young and aged HUVECs (AnnexinV/PI/Hoechst 33258, FACS analysis); type: cell-based; conditions: 48 hours, relative to Con, 2DG 1 mM, 3HB 20 mM, AIC 200 μM
Procedure: (§1) Specifically, human umbilical cord vein derived vascular endothelial cells (HUVECs, Lonza) were cultured in a prescribed culture medium (EBM-2/EGM-2, Lonza). Less than 10 passages were defined as young and 15 passages or more were defined as aged. For young or aged HUVEC, 2DG, 3HB, and AIC were added to the culture solutions at the concentrations of 1 mM, 20 mM, and 200 μM, respectively, and the cells were harvested after 48 hours. The collected cells were evaluated for viability by fluorescence/absorbance measurements using ApoTox-Glo™ Triplex Assay kit (Promega). Dead cells were stained using AnnexinV (Becton & Dickinson (BD)), PI (Sigma-Aldrich), and Hoechst 33258 (Invitrogen), and the percentage of apoptosis-induced cells was quantified by FACS analysis.

[2] = tested on: human umbilical cord vein derived vascular endothelial cells (HUVECs); test: Cell viability of young and aged HUVECs (ApoTox-Glo Triplex Assay); type: cell-based; conditions: 48 hours, 2DG 1 mM, 3HB 20 mM, AIC 200 μM; for selectivity of the effects for aged versus young cells: aged (15 passages or more) vs young (less than 10 passages) HUVECs, viability and apoptosis; for cell viability: young and aged HUVECs, relative to Con
Procedure: as §1

[3] = tested on: p16 and p21 mRNA in heart, kidney, skeletal muscle (quadriceps), and brown adipose tissue; test: Quantitative RT-PCR of p16 and p21 in organs other than visceral adipose tissue of obesity model mice; type: in vivo, mice (C57BL/6NCr); conditions: SGLT2 inhibitor administration for 7 days
Procedure: (§2) Four-week-old wild-type mice (C57BL/6NCr) were fed with high fat diets for 8 weeks to prepare diet-induced obesity model mice. Then, canagliflozin, an SGLT2 inhibitor, was administered orally to the prepared obesity model mice by mixing with the diet at the concentration of 0.03% w/w (hereinafter referred to as “high fat diet+SGLT2i group”).
(§3) Specifically, RNA was extracted with RNA-Bee™ (Tel-Test) from a portion of the visceral adipose tissue (epididymal adipose tissue) collected from the mice of each group 3 days and 1 week after starting administration of canagliflozin. The collected RNA was quantified by Nanodrop (Thermo), and cDNA was then prepared from 1 μg of the RNA using QuantiTect Reverse Transcription Kit (Quiagen). This cDNA was used to quantify the relative expression of mRNAs of p21 and p16 using Actb as the housekeeping gene by quantitative RT-PCR method using Light Cycler 480 (Roche), and TaqMan Universal Probe Library and the Light Cycler Master (Roche). The primers for each RNA were designed using the Probe finder on the Roche website.
Specifically, mRNA expression levels of p16 and p21 in heart, kidney, skeletal muscle (quadriceps), and brown adipose tissue, which were collected from the same mice when the visceral adipose tissue was collected in Experimental Example 2, were quantified using the same methods described in Experimental Example 4.

[4] = Metabolome analysis of blood and various tissues of mice after short-term administration of the SGLT2 inhibitor; type: in vivo
From the text: It is known that SGLT2 inhibition accelerates fatty acid oxidation and suppresses glycolysis, and that acceleration of glycolysis is observed in senescent cells. Then, whether 3-hydroxybutyrate (hereinafter referred to as “3HB”), AICAR (hereinafter referred to as “AIC”), and 2-deoxyglucose (hereinafter referred to as “2DG”) that has an inhibitory effect on glycolysis have effects to induce apoptosis of senescent cells were examined.

[5] = tested on: senescent cells in the visceral adipose tissues; test: Senescence-associated acidic β-galactosidase staining of visceral adipose tissue of diet-induced obesity model mice; type: in vivo, mice (C57BL/6NCr); conditions: canagliflozin 0.03% w/w in diet, one week
Procedure: as §2
For comparison, four-week-old wild-type mice (C57BL/6NCr) fed with normal diets for 8 weeks (hereinafter referred as “normal diet group”) and obesity model mice prepared in the same manner as described above with the exception of not administering canagliflozin (hereinafter referred to as “high fat diet group”) were prepared.
The visceral adipose tissues (epididymal adipose tissues) were collected from the mice of each group one week after starting administration of canagliflozin in Experimental Example 1.
(§4) Then, the senescent cells in the visceral adipose tissues collected from the mice of each group were detected according to the conventional method (Dimri, G. P. et al., Proc. Natl. Acad. Sci. U.S.A., 92(20), 9363-9367, 1995). Specifically, each of the visceral adipose tissues was stained with senescence-associated acidic β-galactosidase and the senescent cells were detected. The senescent cells were stained blue by this staining.

p53 protein = test: Western blotting of p53 protein in visceral adipose tissue of obesity model mice; type: in vivo, mice (C57BL/6NCr); conditions: canagliflozin 0.03% w/w in diet, one week
Procedure: as §2
Specifically, expression level of p53 protein was measured by Western blotting using a portion of the visceral adipose tissues collected in Experimental Example 2. Type 1C12 (CST) was used as the anti-p53 antibody. Anti-β-actin antibody (type 13E5, CST) was used as the antibody to detect β-actin protein, which is the loading control.

[6] = tested on: p21 (Cdkn1a) and p16 (Cdkn2a) mRNA; test: Quantitative RT-PCR of senescence markers p21 (Cdkn1a) and p16 (Cdkn2a) in visceral adipose tissue of obesity model mice; type: in vivo, mice (C57BL/6NCr); conditions: canagliflozin 0.03% w/w in diet, 3 days and 1 week, relative to Actb
Procedure: as §2, §3

[7] = tested on: senescent cells in blood vessels; test: Senescence-associated β-galactosidase staining of blood vessels of atherosclerotic model mice; type: in vivo, ApoE-deficient (ApoE−/−) mice; conditions: ApoE−/− mice on high fat diet 12 weeks, canagliflozin 0.03% w/w in diet, 2 weeks, vs HFD group
From the text: as §4
Four-week-old ApoE-deficient (ApoE^−/−) mice were fed with high fat diets for 12 weeks, followed by oral administration of canagliflozin, an SGLT2 inhibitor, mixed in the diet at the concentration of 0.03% w/w (hereinafter referred to as “HFD+SGLT2i group”). For comparison, the same mice as described above with the exception of not administering canagliflozin (hereinafter referred to as “HFD group”) were prepared. The blood vessels (from the aorta base to the descending aorta on the diaphragm) were collected from the mice of each group 2 weeks after starting administration of canagliflozin. Subsequently, the senescent cells in blood vessels collected from the mice of each group were detected according to the method described in Experimental Example 2. The stainability was measured at a part ranging from the ascending aorta to the branch of the arch left subclavian artery.

[8] = tested on: Hutchinson-Gilford progeria model mice (Zmpste24-deficient mice); test: General condition of Hutchinson-Gilford progeria model mice; type: in vivo; conditions: canagliflozin 0.03% w/w in diet, 3 to 4 weeks, KO+SGLT2i vs KO
From the text: Canagliflozin, an SGLT2 inhibitor, mixed in a diet at the concentration of 0.03% w/w was orally administered to 13-week-old Hutchinson-Gilford progeria model mice (Zmpste24-deficient mice), and the general condition of the mice was observed.

visceral adipose tissue = test: Adipose inflammation and oxidative stress in adipose tissue of obesity model mice (HE, DHE, F4/80 staining, CCL2 and TNFα RT-PCR); type: in vivo, mice (C57BL/6NCr); conditions: visceral fat
Procedure: as §2
Specifically, a portion of the visceral fat collected in Experimental Example 4 was immersed and fixed with 10% Mildform (Wako) for at least 24 hours. The sample was dehydrated and embedded in paraffin, and sliced into 5-μm thick. The slices were stuck on slides and subjected to hematoxylin-eosin (HE) staining, dihydroethidium (DHE) staining, or immunofluorescent staining with F4/80 antibody. The stained slices were imaged using Biorevo (Keyence Co.), or where necessary, using confocal microscopy. For the HE staining, the images were photographed at 400× magnification, and the mean number of the crown like structures per one 40× field of view was counted as well. For the DHE staining, the percentage (%) of a red color value equal to or greater than a certain value relative to a randomly photographed 400× image per one field of view was measured using ImageJ. For the Immunofluorescent staining with F4/80 antibody, percentage (%) of F4/80 positive cells per nucleus in one field of view was measured. In addition, mRNAs of CCL2 and TNFα were quantified by quantitative RT-PCR method according to the method described in Experimental Example 4.

[9] = SGLT2 inhibitor administration for 3 days and 7 days
[10] = SGLT2 inhibitor administration for 7 days

O=CC[C@@H](O)[C@H](O)[C@H](O)CO [2DG, 2-deoxyglucose]
apoptosis induction (percentage of apoptotic cells) [1]: increase the apoptosis induction
selectivity of the effects for aged versus young cells [2]: in an aged cell-selective manner
cell viability [2]: decrease of the cell viability

CC(O)CC(=O)O (stereo not shown) [3HB, 3-hydroxybutyrate]
apoptosis induction (percentage of apoptotic cells) [1]: increase the apoptosis induction
selectivity of the effects for aged versus young cells [2]: in an aged cell-selective manner
cell viability [2]: decrease of the cell viability

NC(=O)c1ncn([C@@H]2O[C@H](CO)[C@@H](O)[C@H]2O)c1N [AIC, 5-Aminoimidazole-4-carboxamide-1-β-D-ribofuranoside]
apoptosis induction (percentage of apoptotic cells) [1]: increased apoptosis induction
selectivity of the effects for aged versus young cells [2]: not in an aged cell-selective manner; also recorded: more potent effects in the young cells
cell viability [2]: decreased cell viability

Cc1ccc([C@@H]2O[C@H](CO)[C@@H](O)[C@H](O)[C@H]2O)cc1Cc1ccc(-c2ccc(F)cc2)s1 [canagliflozin, (1S)-1,5-Anhydro-1-C(-3{[5-(4-fluorophenyl)thiophen-2-yl]methyl}-4-methylphenyl)-D-glucitol]
mRNA levels of p16 in the brown adipose tissue [3]: tended to decrease
mRNA levels of p16 in the kidney [3]: tended to decrease
mRNA levels of p21 in the heart [3]: tended to decrease
mRNA levels of p21 in the kidney [3]: tended to decrease
mRNA levels of p21 in the skeletal muscle [3]: tended to decrease
AICAR in blood [4]: significant increase of AICAR
ketone body concentration in blood and each tissue [4]: increase of ketone body concentration in blood and each tissue
inflammation at the visceral fat ([5]; high fat diet+SGLT2i group mice): alleviation of inflammation at the visceral fat was also observed
senescent cells in the visceral adipose tissue (senescence-associated acidic β-galactosidase staining) ([5]; obesity model mice, oral, vs high fat diet group): significantly decreased the senescent cells in the visceral adipose tissue
expression level of p53 in the visceral adipose tissue (Western blotting) (p53 protein): significantly lowered
p16 mRNA levels in visceral adipose tissue [6]: a similar trend was observed for p16
p21 mRNA levels in visceral adipose tissue [6]: significantly suppressed the increase of p21 mRNA levels
senescent cells in blood vessels (senescence-related β-galactosidase stainability) [7]: decreased the senescent cells stained blue
deterioration of hair consistency and alopecia [8]: reduced
mRNA expression of CCL2 (visceral adipose tissue; [9]): tended to decrease
mRNA expression of TNFα (visceral adipose tissue; [9]): tended to decrease
macrophage infiltration into adipose tissue (immunofluorescent staining with F4/80) (visceral adipose tissue; [9]): macrophage infiltration into adipose tissue remained
infiltration of macrophages and CLS structures (HE staining, number of CLS) (visceral adipose tissue; [10]): significantly decreased
oxidative stress (DHE staining, DHE positive area) (visceral adipose tissue; [10]): significantly suppressed
